Columns and labels:
[1] = tested on: CHO cells; test: LC-MS analysis of glycans from CTLA4Ig produced by CHO cells in the presence of elevated uridine; format: cell-based, Chinese hamster; conditions: CTLA4Ig from uridine-supplemented CHO cells, compared to the untreated control
Excerpt: FIG. 1 is a depiction of the levels of glycans from recombinant fusion protein CTLA4-IgG produced in the presence of elevated uridine. Data are expressed as the ratio of the amount of the indicated glycan from control conditions to the amount of the same glycan produced in the presence of elevated uridine. Values are the average +/−SD of duplicate determinants. A value greater than one indicates the species is in greater abundance under the control conditions.
Chinese hamster ovary (CHO) cells were supplemented with the nucleoside uridine. Cells were harvested, and snap frozen, while culture supernatant was harvested and CTLA4Ig harvested by protein A purification for subsequent analysis. Cells were then subjected to nucleotide sugar extraction using standard methods. In short, this was performed with chloroform:methanol:water (2:4:1), the pellets discarded, and the resulting extraction dried down. The dried material was subsequently resuspended in 500 ul of 10% butanol in water and then extracted with 1 ml of 90% butanol in water. […] For quantification, sugar-nucletides were resolved with RP chromatography.
Protein product was deglycosylated with PNGase F for 18 hours and the resulting glycans isolated with PGC chromatography. […] Resulting MS peak areas were quantified and for each glycan the ratio of the control vs. the uridine treated samples was determined.

[2] = tested on: CHO cells; test: Intracellular sugar-nucleotide levels from CHO cells cultured with Uridine supplementation; format: cell-based, Chinese hamster; design: CMP-NeuAc, average increase in sugar-nucloetide above no supplemented cells / UDP-Gal, average increase in sugar-nucloetide above no supplemented cells / UDP-Glc, average increase in sugar-nucloetide above no supplemented cells / UDP-GlcNAc, average increase in sugar-nucloetide above no supplemented cells / GDP-Man, average increase in sugar-nucloetide above no supplemented cells: unit not given here; conditions: for CMP-NeuAc, average increase in sugar-nucloetide above no supplemented cells / GDP-Fuc, average increase in sugar-nucloetide above no supplemented cells / GDP-Man, average increase in sugar-nucloetide above no supplemented cells / UDP-Gal, average increase in sugar-nucloetide above no supplemented cells / UDP-Glc, average increase in sugar-nucloetide above no supplemented cells / UDP-GlcNAc, average increase in sugar-nucloetide above no supplemented cells: intracellular, CHO cells
Experimental: Chinese hamster ovary (CHO) cells were supplemented with the nucleoside uridine. Cells were harvested, and snap frozen, while culture supernatant was harvested and CTLA4Ig harvested by protein A purification for subsequent analysis. Cells were then subjected to nucleotide sugar extraction using standard methods. In short, this was performed with chloroform:methanol:water (2:4:1), the pellets discarded, and the resulting extraction dried down. The dried material was subsequently resuspended in 500 ul of 10% butanol in water and then extracted with 1 ml of 90% butanol in water. The butanol phase was discarded and the acqueous subjected to a second butanol extraction. The final aqueous phase was dried down and the sugar nucleotides further isolated by PGC chromatography eluting off with 25% acetonitrile (v/v) containing 50 mM triethylammonium acetate. For quantification, sugar-nucletides were resolved with RP chromatography.

Structure (SMILES): O=c1ccn([C@@H]2O[C@H](CO)[C@@H](O)[C@H]2O)c(=O)[nH]1 [Uridine, uridine]
- level of the monogalactosylated species on the protein product [1]: rises
- levels of the uridine sugars including UDP-Gal and UDP-GlcNAc ([2]; CHO cells supplemented with uridine): increased significantly
- CMP-NeuAc, average increase in sugar-nucloetide above no supplemented cells ([2]; Uridine 2 x): 32.13
- GDP-Fuc, average increase in sugar-nucloetide above no supplemented cells ([2]; Uridine 2 x): 6.5
- GDP-Man, average increase in sugar-nucloetide above no supplemented cells ([2]; Uridine 2 x): 6.06
- UDP-Gal, average increase in sugar-nucloetide above no supplemented cells ([2]; Uridine 2 x): 168.97
- UDP-Glc, average increase in sugar-nucloetide above no supplemented cells ([2]; Uridine 2 x): 409.16
- UDP-GlcNAc, average increase in sugar-nucloetide above no supplemented cells ([2]; Uridine 2 x): 402.7
- CMP-NeuAc, average increase in sugar-nucloetide above no supplemented cells ([2]; Uridine 10 x): 50.52
- GDP-Fuc, average increase in sugar-nucloetide above no supplemented cells ([2]; Uridine 10 x): 8.98
- GDP-Man, average increase in sugar-nucloetide above no supplemented cells ([2]; Uridine 10 x): 12.45
- UDP-Gal, average increase in sugar-nucloetide above no supplemented cells ([2]; Uridine 10 x): 389.06
- UDP-Glc, average increase in sugar-nucloetide above no supplemented cells ([2]; Uridine 10 x): 1261.96
- UDP-GlcNAc, average increase in sugar-nucloetide above no supplemented cells ([2]; Uridine 10 x): 2280.49

— patent US20120329709A1, “PRODUCTION OF GLYCOPROTEINS” (priority 2009, published 2012)
